Measured values published in patent US6645495B1, “Compositions of saponin adjuvants and excipients” (Antigenics, Inc., priority 1997, dated 2003).
Blank lines part the entries; values can stand above or below the substance they belong to.

Legend:
sheep red blood cells = conditions: cited from earlier work; for concentration causing hemolysis of sheep red blood cells: substantially pure saponin
[1] = cited from earlier work
[2] = in words; cited from earlier work
C57BL/6 mice = conditions: antigen ovalbumin, cited from earlier work
Balb/c mice = experiment: adjuvant potency: anti-OVA IgG2a response of immunized Balb/c mice (EIA); format: in vivo
Experimental: FIGS. 1A and 1B show the effect of Polysorbate 40, Polysorbate 60, Polysorbate 80, and methyl-β-cyclodextrin on the immune response of Balb/c mice to OVA plus various doses of QS-21. Female mice (10/group, 8-10 weeks of age at the first immunization) were immunized subcutaneously with 5 μg of OVA and the indicated dose of QS-21 in either PBS alone or in 2 mg/ml excipient in PBS. A booster immunization was given by the same route at week 2. Sera was collected at week 4 for EIA analysis of the anti-OVA response. Mice were analyzed for OVA-specific IgG2a by a standard EIA analysis.

[3] = tested on: New Zealand white rabbits; conditions: cited from earlier work
[4] = aqueous shelf life of QS-21 solution at 4° C. (t90); format: physicochemical
Experimental: Product stability is another concern for QS-21 containing compositions. The shelf life of a vaccine product is typically defined by the extent of time to reach a defined and acceptable low level of degradation (such as, the time to 10% degradation, also known as t90). Most commercial vaccine products have a shelf life of at least 18 to 24 months when stored in the refrigerator at 4° C. Adjuvants, which are essential components of vaccines, therefore must also have equally long shelf lives. However, the shelf life of a 50 μg/ml solution of QS-21 at pH 7.0 at 4° C. is reached in about 3 months. The reason for the short shelf life is because the ester bond of QS-21 is increasingly labile at increasing pH and because monomers of QS-21, as opposed to micelles, are subject to hydrolysis. The need to stabilize compositions of QS-21 adjuvant is significant.
This is representative of a typical clinical vaccine formulation containing QS-21 adjuvant (which consists of QS-21 at a concentration of 50-200 μg/ml in a-physiological pH buffer (pH 7.0-7.5)). […] Some improvement in stability, however, can be achieved by an increased concentration of the QS-21 product. […] But a concentrated QS-21 solution is not necessarily a practical method of administering a low dose of adjuvant. For example, administration of 25 μg from a 500 μg/ml solution would require the syringe withdrawal of 0.05 ml of dose. Additionally, some improved stability can be achieved by the use of a lower pH, i.e., at pH 6.0. However, a pH substantially lower than the physiological pH range may not be tolerated well or be compatible with the antigen.

[5] = earlier clinical trials: pain after injection of QS-21 in simple buffer; format: in vivo, humans; conditions: QS-21 in saline or PBS, some individuals
Description: This pain, described by most individuals as a burning pain, may be a secondary reaction correlated with the lytic effect of the QS-21 adjuvant. Patient pain is likewise an objectionable property for a composition.

Substance: QS-17
concentration causing hemolysis of sheep red blood cells (sheep red blood cells): ≥ 25000 ng/mL | critical micellar concentration in phosphate buffered saline [1]: ~0.03 % (w/v) | critical micellar concentration in water [1]: approximately 0.06 % (w/v) | immune adjuvant activity [2]: having immune adjuvant activity

Substance: QS-18
concentration causing hemolysis of sheep red blood cells (sheep red blood cells): ≥ 25000 ng/mL | critical micellar concentration in phosphate buffered saline [1]: ~0.02 % (w/v) | critical micellar concentration in water [1]: approximately 0.04 % (w/v) | immune adjuvant activity [2]: having immune adjuvant activity

t90 (shelf life, time to 10% degradation) ([4]; 50 μg/ml QS-21, pH 6.0): 679 days | t90 (shelf life, time to 10% degradation) ([4]; 50 μg/ml QS-21, pH 7.0, 4° C.): 94 days | shelf life ([4]; 500 μg/ml QS-21, pH 7.0, 4° C.): 23.9 months | t90 (shelf life, time to 10% degradation) ([4]; 500 μg/ml QS-21, pH 7.0, 4° C.): 717 days | pain after injection [5]: immediate, transient pain
Substance: QS-21
threshold dose for antibody (C57BL/6 mice; in PBS (Kensil 1993)): 2.5 µg | threshold dose for CTL (C57BL/6 mice; in PBS (Newman 1992)): 2.5 µg | adjuvant activity (threshold dose) relative to PBS (Balb/c mice; 5 μg OVA s.c., boost week 2, sera week 4, 2 mg/ml Polysorbate 40, 60, 80 or methyl-β-cyclodextrin in PBS): active in all excipients within two fold of the threshold value determined in PBS | optimum adjuvant dose (Balb/c mice; QS-21 dose, OVA-specific IgG2a, Balb/c mice): ≥ 10 µg | maximum level of antibody response (Balb/c mice; at optimum adjuvant dose, excipients versus PBS): same maximum level of antibody response was reached | concentration at which hemolysis occurs (sheep red blood cells; simple buffer such as saline or PBS (Kensil 1991)): 5000 to 7000 ng/mL | concentration causing hemolysis of sheep red blood cells (sheep red blood cells): ≥ 25000 ng/mL | creatine kinase (marker for muscle damage) ([3]; after injection with QS-21 in saline or PBS): increased | injection site histopathology ([3]; intramuscular QS-21/saline solutions, some animals (Kensil 1995)): mild to moderate fibroblast damage or necrosis | critical micellar concentration ([1]; in PBS (Soltysik 1995)): approximately 50 μg/ml | critical micellar concentration in phosphate buffered saline [1]: ~0.02 % (w/v) | critical micellar concentration in water [1]: approximately 0.03 % (w/v) | immune adjuvant activity [2]: having immune adjuvant activity
